Paper PMC8784342, “Investigation of sugar binding kinetics of the E. coli sugar/H^+ symporter XylE using solid-supported membrane-based electrophysiology” (The Journal of Biological Chemistry, 2021)
Where “and” joins values, the source holds several entries; their conditions need not be identical. Equal values may be shown once.

Legend:
wt XylE = wt XylE (Escherichia coli, UniProt P0AGF4); assay: biochemical; set-up: made in house; host or cells: E. coli BL21 DE3
Procedure: (§1) Reconstitution of purified proteins (2–20 mg/ml) was carried out with E. coli phospholipids (Avanti Polar Lipids, E. coli polar lipid extract). Preformed liposomes (0.2–2 ml, 10 mg/ml) were dissolved in 1% (w/v) n-octyl-β-D-glucoside, and the protein suspension was mixed on ice to a concentration of 0.2 mg protein/mg lipid (LPR 5).
(§2) Wt XylE, wt FucP, and the mutant proteins were reconstituted using overnight incubation in 400 mg/ml BioBeads (SM-2 Adsorbent Media, Bio-Rad) at 4 °C. After reconstitution, the samples were diluted to 2.5 mg/ml lipid concentration, frozen in liquid nitrogen, and stored at −80 °C. For wt LacY and mutant proteins, this procedure was not successful. We, therefore, applied the previously established n-octyl-β-D-glucoside dilution method (1:100) ([69]).
(§3) SSM measurements were performed as described ([20], [23]). After thawing the sample and sonication in a water bath, 30 μl of proteoliposomes (2.5 mg/ml lipid at LPR 5) was allowed to adsorb for 1 to 2 h to an octadecanethiol/phosphatidylcholine hybrid bilayer on a gold surface (the sensor).
(§4) For measurements, a single solution exchange configuration ([23]) was employed that consisted in three phases of 0.5 s duration each: Flow of nonactivating solution (NA), activating solution (A), and nonactivating solution (NA). Only the activating solution contained the sugar. When pH dependence is determined, pH of NA and A solutions during one experiment are kept constant. Between experiments using different pH values, the sensor was incubated at the new pH for 3 min to equilibrate the intraliposomal pH.
(§5) Instruments with different time resolution were used as required. […] Currents were recorded throughout the entire time and amplified with a current amplifier set to a gain of […] and a rise time of 10 ms (low time-resolution set up) or 3 ms (high time-resolution set up).
(§6) All NA solutions were buffered in 100 mM KPi at a given pH value. NA solutions used with LacY contained 1 mM DTT in addition. A solutions were made from NA solutions by adding the respective sugar at a given concentration to induce the symport reaction. Sugar concentration jumps initiated sugar-proton symport, and charge transfer was measured by capacitive coupling. Therefore, only transient currents were recorded.
(§7) Each dataset represented with error bars was generated by performing the same experiment on multiple sensors (n ≥ 3). Error bars represent standard deviations of the average value. When peak currents are averaged across sensors, datasets are normalized before averaging. When the protein catalyzes transport and PSS currents are negligible, the peak current of the transient represents a good approximation of the current generated by the steady-state symport activity of the transporter. In most cases, peak currents have been used to derive kinetic and thermodynamic parameters according to the equations given in Figure 2 (KM, Imax ∼ Vmax, Hill coefficient n), Figure 4 (KD and rate constants for sugar binding kon and release koff), and Figure 6 (pKa for proton binding and pKb for proton release). Reconstruction of transporter currents for analysis of biphasic currents has been performed as described previously ([70]). This is required when transport and PSS currents are observed at the same time.

wt LacY [1] = molecular target: T1, wt LacY (Escherichia coli, UniProt P02920); assay: SSM-based electrophysiology, proteoliposomes with wt LacY; type: biochemical
T1 construct: made in house; host or cells: E. coli XL1-Blue
T1 sequence (P02920 1-417): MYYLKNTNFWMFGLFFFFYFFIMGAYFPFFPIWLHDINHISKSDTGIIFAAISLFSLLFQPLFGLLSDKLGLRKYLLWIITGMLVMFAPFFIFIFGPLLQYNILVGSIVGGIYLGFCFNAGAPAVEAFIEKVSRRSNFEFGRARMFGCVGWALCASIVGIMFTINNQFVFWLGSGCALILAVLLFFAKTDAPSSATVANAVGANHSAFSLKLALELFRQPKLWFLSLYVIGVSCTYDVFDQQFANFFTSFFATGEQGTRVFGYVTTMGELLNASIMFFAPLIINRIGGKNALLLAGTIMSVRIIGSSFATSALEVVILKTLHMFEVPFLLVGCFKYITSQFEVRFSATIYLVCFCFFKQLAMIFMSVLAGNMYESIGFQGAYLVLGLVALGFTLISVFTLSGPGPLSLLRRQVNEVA
Procedure: as §1, §2, §3, §4, §5, §6, §7

E325A LacY = molecular target: T2, E325A LacY (Escherichia coli, UniProt P02920, E325A); assay: SSM-based electrophysiology, transport-deficient mutant E325A LacY (PSS currents, electrogenic binding); type: biochemical; conditions: for Q (pC) Mut, transferred charge: pH 7.6; for Q (pC) Mut, transferred charge / kobs (s^−1) mut: saturating substrate (100 mM D-lactose, lactulose; 5 mM TDG); for kobs (s^−1) mut: kobs = 1/τ, limited by time resolution
T2 construct: made in house; host or cells: E. coli XL1-Blue
T2 sequence (P02920 whole entry E325A): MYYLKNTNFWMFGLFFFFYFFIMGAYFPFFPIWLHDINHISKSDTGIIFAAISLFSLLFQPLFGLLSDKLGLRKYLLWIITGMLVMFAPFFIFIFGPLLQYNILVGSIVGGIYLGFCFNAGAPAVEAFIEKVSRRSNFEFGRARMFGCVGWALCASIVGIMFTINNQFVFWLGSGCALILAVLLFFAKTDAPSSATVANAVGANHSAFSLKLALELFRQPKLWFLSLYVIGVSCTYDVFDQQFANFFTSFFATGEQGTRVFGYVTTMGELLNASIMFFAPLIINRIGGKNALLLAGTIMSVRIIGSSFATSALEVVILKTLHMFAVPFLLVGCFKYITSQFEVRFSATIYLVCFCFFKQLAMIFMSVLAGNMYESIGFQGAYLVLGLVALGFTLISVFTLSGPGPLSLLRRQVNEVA
Procedure: as §1, §2, §3, §4, §5, §6, §7

wt FucP = molecular target: T3, wt FucP (Escherichia coli, UniProt P11551); assay: SSM-based electrophysiology, proteoliposomes with wt FucP; type: biochemical
T3 construct: made in house; host or cells: E. coli BL21 DE3
T3 sequence (P11551 1-438): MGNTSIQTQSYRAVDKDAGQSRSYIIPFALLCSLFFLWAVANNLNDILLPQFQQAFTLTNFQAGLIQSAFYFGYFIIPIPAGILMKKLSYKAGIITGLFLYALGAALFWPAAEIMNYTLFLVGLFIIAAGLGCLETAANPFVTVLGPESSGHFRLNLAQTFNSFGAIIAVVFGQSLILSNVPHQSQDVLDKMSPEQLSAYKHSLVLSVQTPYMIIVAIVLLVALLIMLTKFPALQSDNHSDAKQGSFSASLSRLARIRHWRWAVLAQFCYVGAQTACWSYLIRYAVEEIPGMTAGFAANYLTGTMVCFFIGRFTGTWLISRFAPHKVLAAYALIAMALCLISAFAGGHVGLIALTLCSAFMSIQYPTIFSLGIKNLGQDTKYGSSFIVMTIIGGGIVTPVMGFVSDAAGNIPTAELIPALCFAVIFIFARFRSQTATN
Procedure: as §1, §2, §3, §4, §5, §6, §7

D27N XylE = molecular target: T4, D27N XylE (Escherichia coli, UniProt P0AGF4, D27N); assay: SSM-based electrophysiology, transport-deficient mutant D27N XylE (PSS currents, electrogenic binding); type: biochemical
T4 construct: made in house; host or cells: E. coli BL21 DE3
T4 sequence (P0AGF4 whole entry D27N): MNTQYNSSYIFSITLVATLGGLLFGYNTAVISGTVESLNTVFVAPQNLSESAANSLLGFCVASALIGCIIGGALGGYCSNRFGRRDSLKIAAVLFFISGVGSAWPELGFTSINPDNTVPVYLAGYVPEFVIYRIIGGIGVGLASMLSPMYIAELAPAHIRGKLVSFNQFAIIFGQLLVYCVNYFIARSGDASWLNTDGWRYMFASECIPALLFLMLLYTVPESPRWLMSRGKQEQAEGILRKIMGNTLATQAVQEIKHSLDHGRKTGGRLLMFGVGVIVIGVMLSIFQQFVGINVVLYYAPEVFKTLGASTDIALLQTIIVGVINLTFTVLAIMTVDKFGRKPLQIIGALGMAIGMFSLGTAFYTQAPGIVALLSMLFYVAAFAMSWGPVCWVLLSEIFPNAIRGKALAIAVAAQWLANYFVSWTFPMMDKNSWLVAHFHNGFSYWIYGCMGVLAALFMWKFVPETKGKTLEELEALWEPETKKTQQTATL
Procedure: as §1, §2, §3, §4, §5, §6, §7

D46N FucP = molecular target: T5, D46N FucP (Escherichia coli, UniProt P11551, D46N); assay: SSM-based electrophysiology, transport-deficient mutant D46N FucP (PSS currents); type: biochemical
T5 construct: made in house; host or cells: E. coli BL21 DE3
T5 sequence (P11551 whole entry D46N): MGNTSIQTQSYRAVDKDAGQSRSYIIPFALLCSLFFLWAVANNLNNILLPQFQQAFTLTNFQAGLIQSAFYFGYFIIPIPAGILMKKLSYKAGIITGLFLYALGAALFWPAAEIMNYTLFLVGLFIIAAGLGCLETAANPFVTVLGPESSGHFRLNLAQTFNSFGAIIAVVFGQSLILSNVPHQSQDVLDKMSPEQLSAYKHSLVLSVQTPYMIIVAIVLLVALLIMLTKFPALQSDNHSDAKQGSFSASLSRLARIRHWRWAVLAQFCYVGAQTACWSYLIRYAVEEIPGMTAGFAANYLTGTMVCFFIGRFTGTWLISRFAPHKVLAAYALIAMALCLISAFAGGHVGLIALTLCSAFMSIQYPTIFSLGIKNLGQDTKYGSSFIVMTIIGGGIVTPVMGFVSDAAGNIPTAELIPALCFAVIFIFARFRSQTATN
Procedure: as §1, §2, §3, §4, §5, §6, §7

Q175I/L297F XylE = molecular target: T6, Q175I/L297F XylE (Escherichia coli, UniProt P0AGF4, L297F/Q175I); assay: biochemical
T6 construct: made in house; host or cells: E. coli BL21 DE3
T6 sequence (P0AGF4 whole entry Q175I/L297F): as the sequence (P0AGF4 whole entry D27N) above, with N27D, Q175I, L297F counted along it
Procedure: as §1
Wt XylE, wt FucP, and the mutant proteins were reconstituted using overnight incubation in 400 mg/ml BioBeads (SM-2 Adsorbent Media, Bio-Rad) at 4 °C. After reconstitution, the samples were diluted to 2.5 mg/ml lipid concentration, frozen in liquid nitrogen, and stored at −80 °C. […] We, therefore, applied the previously established n-octyl-β-D-glucoside dilution method (1:100) ([69]).
as §3, §4, §5, §6, §7

XylE [2] = conditions: uptake and competition-uptake assays; cited from earlier work
XylE [3] = molecular target: XylE; set-up: method as in PMID 23075985; conditions: read-out: KD, isothermal titration calorimetry; cited from earlier work
wt LacY [4] = molecular target: T1, wt LacY; conditions: pH 7.6, main substrate, cited from earlier work
LacY = conditions: cited from earlier work
single-Cys LacY = molecular target: single-Cys LacY; set-up: method as in PMID 7918438, PMID 15304639; conditions: read-out: KD, protection against labeling; cited from earlier work
C154G/V331C LacY = test system: C154G/V331C LacY; set-up: method as in PMID 19383792, PMID 17176050; conditions: stopped flow; cited from earlier work
[5] = EC50,1, double Michaelis–Menten fit, pH 7.6, peak currents
[6] = EC50,2, double Michaelis–Menten fit, pH 7.6, peak currents
[7] = pH 7.6, peak currents, Hill equation
[8] = reconstructed transporter currents, alkaline range, double titration

wt XylE, sequence (P0AGF4 whole entry): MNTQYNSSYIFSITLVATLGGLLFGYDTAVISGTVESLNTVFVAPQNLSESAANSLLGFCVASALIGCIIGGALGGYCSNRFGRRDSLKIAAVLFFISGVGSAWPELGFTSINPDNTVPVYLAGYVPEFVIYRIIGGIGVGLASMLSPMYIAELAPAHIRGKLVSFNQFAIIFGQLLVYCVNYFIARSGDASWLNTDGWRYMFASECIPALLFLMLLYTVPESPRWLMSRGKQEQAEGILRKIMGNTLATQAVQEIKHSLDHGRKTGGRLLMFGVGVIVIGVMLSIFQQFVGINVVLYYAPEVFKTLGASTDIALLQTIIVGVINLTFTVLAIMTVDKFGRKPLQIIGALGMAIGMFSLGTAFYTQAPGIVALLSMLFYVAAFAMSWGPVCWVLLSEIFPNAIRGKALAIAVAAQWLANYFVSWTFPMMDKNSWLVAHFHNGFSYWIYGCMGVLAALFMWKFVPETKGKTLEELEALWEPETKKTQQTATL

6-Deoxy-D-glucose
induction of currents (substrate identification) (wt XylE; pH 7.0): generated signals identifying them as substrates
Imax in percent of Imax of the main substrate (D-xylose) (wt XylE; pH 7.6): 35 ± 5%
Km (wt XylE; pH 7.6, minor substrate, peak currents, low time-resolution set up, read-out: KM (mM) Michaelis–Menten equation): 0.2 ± 0.05 mM

OC[C@H]1O[C@@H](O[C@@H]2[C@@H](CO)OC(O)(CO)[C@H]2O)[C@H](O)[C@@H](O)[C@H]1O (mixture of isomers) [Lactulose]
EC50 (wt LacY [1]; [5]): 880 ± 100 µM
EC50 (wt LacY [1]; [6]): 90000 ± 42000 µM
Imax in percent of Imax of the main substrate (D-lactose) (wt LacY [1]; pH 7.6): 71 ± 8%
n (Hill coefficient) (wt LacY [1]; [7]): 0.55 ± 0.08
Kd (E325A LacY): 5000 ± 600 µM
Q (pC) Mut, transferred charge (E325A LacY): 2.2 ± 0.5 (pH 7.6) pC
kobs (s^−1) mut (E325A LacY): 380 ± 40 s⁻¹

OC[C@H]1OC(O)[C@@H](O)[C@H](O)[C@@H]1O (stereo partly drawn) [D-altrose]
induction of currents (substrate identification) (wt FucP; pH 8.0): generated signals identifying them as substrates

OC1OC[C@@H](O)[C@@H](O)[C@@H]1O (stereo partly drawn) [D-arabinose]
EC50 (wt FucP; [5]): 820 ± 530 µM
EC50 (wt FucP; [6]): 38000 ± 9000 µM
Imax in percent of Imax of the main substrate (L-fucose) (wt FucP; pH 7.6): 132 ± 13%
n (Hill coefficient) (wt FucP; [7]): 0.62 ± 0.04

OC[C@H]1OC(O)[C@H](O)[C@@H](O)[C@@H]1O (stereo partly drawn) [D-glucose]
Kd (D27N XylE; KD (mM) mut, pH 7.6, hyperbolic fit of peak currents, in Table 3 headed EC50): 1.9 ± 0.35 mM
Kd (D27N XylE; KD from fit of concentration-dependent kobs, pH 7.6): 0.67 ± 0.1 mM
Imax (nA) slow component (D27N XylE; pH 7.6): <0.05 nA
Q (pC) Mut, transferred charge (D27N XylE; pH 7.6, 30 mM substrate): 1.1 ± 0.3 (pH 7.6) pC
IPeak (pA) fast component (D27N XylE; pH 7.6, saturating substrate): 60 pA and 60 ± 25 pA
kobs (s^−1) mut (D27N XylE; saturating substrate (30 mM), kobs = 1/τ, monoexponential fit, limited by time resolution): 300 ± 40 s⁻¹
induction of PSS currents (D46N FucP): do not generate PSS currents
IPeak (pA) fast component (Q175I/L297F XylE; pH 7.6, saturating substrate): 240 pA and 240 ± 40 pA
pKa (Q175I/L297F XylE; reconstructed transporter currents, acidic range): 4.6 ± 0.1
pKb1 (Q175I/L297F XylE; [8]): ~7.5 and 7.3 ± 0.1
pKb2 (Q175I/L297F XylE; [8]): 9.8 ± 0.2
transport of radioactively labeled sugar (XylE [2]): not transported
Kd (XylE [3]): 770 µM
Kb (wt XylE): 39.8 pM
EC50 (wt XylE; [5]): 160 ± 10 µM
EC50 (wt XylE; [6]): 6500 ± 900 µM
EC50 (wt XylE; EC50, Hill fit, pH 7.6, peak currents, Hill equation): 920 ± 120 µM
EC50 (wt XylE; apparent EC50 (half saturation constant, Michaelis–Menten equation; KM column), pH 7.6, D-glucose-induced slow PSS current, not transport): 380 µM and 400 µM
Q (pC) wt, PSS transferred charge (wt XylE; pH 3.0, 30 mM substrate): 2.5 ± 1 (pH 3.0) pC
slow peak current amplitude compared with D-xylose-induced currents (wt XylE; pH 7.0): 26%
Imax in percent of Imax of the main substrate (D-xylose) (wt XylE; pH 7.6): 26% and 26 ± 5%
Imax (nA) slow component (wt XylE; pH 7.6, hyperbolic fit of peak current): 0.47 ± 0.1 nA
n (Hill coefficient) (wt XylE; [7]): 0.57 ± 0.03
IPeak (pA) fast component (wt XylE; pH 7.6, saturating substrate, transport current given as upper limit): <470 pA
pKa (wt XylE; pH-dependent peak currents, acidic range): 4.7 ± 0.1

OC[C@H]1O[C@@H](O[C@H]2[C@H](O)[C@@H](O)[C@H](O)O[C@@H]2CO)[C@H](O)[C@@H](O)[C@H]1O [D-lactose]
Q (pC) wt, PSS transferred charge (wt LacY [1]; pH 5.0, 100 mM substrate): 2.6 ± 0.6 (pH 5.0) pC
Kd (E325A LacY): 20000 ± 3000 µM
Q (pC) Mut, transferred charge (E325A LacY): 3.1 ± 1.8 (pH 7.6) pC
kobs (s^−1) mut (E325A LacY): 260 ± 60 s⁻¹
Imax (wt LacY [4]): 0.7 ± 0.2 nA
Km (wt LacY [4]; read-out: KM (mM) Michaelis–Menten equation): 5.3 ± 0.5 mM
transport rate (LacY): 30 to 50 s⁻¹
Km (LacY; radioactively labeled sugars, read-out: KM, literature): 500 to 3000 µM
Kd (single-Cys LacY): 1000 to 10000 µM

O[C@@H]1[C@@H](O)[C@@H](O)CO[C@H]1O [L-arabinose]
induction of PSS currents (D46N FucP): do not generate PSS currents

OC[C@@H]1OC(O)[C@@H](O)[C@H](O)[C@@H]1O (stereo partly drawn) [L-galactose]
Imax in percent of Imax of the main substrate (L-fucose) (wt FucP; pH 7.6): 123 ± 8%

OC[C@@H]1OC(O)[C@H](O)[C@@H](O)[C@@H]1O (stereo partly drawn) [L-idose]
induction of currents (substrate identification) (wt XylE; pH 7.0): generated signals identifying them as substrates

O=[N+]([O-])c1ccc(OC2O[C@H](CO)[C@H](O)[C@H](O)[C@H]2O)cc1 (stereo partly drawn) [p-nitrophenyl-D-galactopyranoside]
rate constant of the binding reaction (C154G/V331C LacY): 10^6 M^−1 s^−1
rate constant of the following conformational changes (C154G/V331C LacY): 250 s⁻¹
